The record followed here is the METLIN SMRT retention time set (Domingo-Almenara et al. 2019).

SMILES strings stand for the structures.

A short description of the data set: gradient 5% acetonitrile 3 min, to 50% in 2 min, to 85% in 15 min, held 3 min, 100 µL/min. The note with it: column: Zorbax Extend-C18 2.1 x 50 mm; eluents: water / acetonitrile, 0.1% formic acid. The method, boiled down:
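Pure standards were analyzed in mixtures of ~100 molecules using HPLC coupled to a quadrupole time-of-flight mass spectrometer, in both positive and negative ionization mode. Separation used a Zorbax Extend-C18 column (2.1 × 50 mm, 1.8 μm) at 100 μL/min, with water and acetonitrile each containing 0.1% formic acid. Dead and dwell volumes were 40 μL and 900 μL, and data were collected over 3 months. Retention time was read from computationally picked adduct peaks, each inspected manually.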
`COc1ccc(S(=O)(=O)N2CCN(c3cc(C)nc(NC4CCCCC4)n3)CC2)cc1C` showed an RP-LC retention time of 848 s.

`Cc1nc(-c2ccccc2)nn1C1CCN(S(=O)(=O)c2cn(C)cn2)C1` (centres undefined) registered an RP-LC retention time of 632 s. As for `O=C(C1CCCN(S(=O)(=O)N2CCOCC2)C1)N1CCN(c2ccc(F)cc2)CC1` (centres undefined), the figure is 807 s. `O=C(c1c[nH]c2ccccc12)N1CCN(c2cc(-c3cccs3)[nH]n2)CC1` displayed an RP-LC retention time of 731 s.

Consider `COc1ccc(C(C)NC(=O)c2cn3cc(C)ccc3n2)cc1` (centres undefined), for which the RP-LC retention time is 671 s. The molecule `Nc1ncncc1-c1ccc2ccccc2c1` displayed an RP-LC retention time of 668 s. As for `COc1ccc2c(c1)C1(CCN(S(=O)(=O)c3ccc(C#N)cc3)C1)C(=O)N2C` (centres undefined), the figure is 880 s. `CNC(=O)c1cc(N2CCOCC2)nc2c(C)cccc12` returned an RP-LC retention time of 704 s. In the case of `Cc1ccccc1-c1noc(CN2C(=O)COc3cc(Cl)ccc32)n1`, the RP-LC retention time came to 1150 s. As for `O=C(C1CCN(c2cnc3nccnc3c2)CC1)N1CCN(c2ccccc2)CC1`, the figure is 718 s; as for `COCCc1noc([C@@H]2CC(F)(F)CN2C(=O)c2coc(C)n2)n1`, 705 s. The molecule `CCc1nn2c(CNC(=O)c3cccc(Br)c3)c(C)nc2s1` showed an RP-LC retention time of 686 s.

For `Cc1ccc(S(=O)(=O)N2C(=O)CCC2C(=O)Nc2cccc(C)c2C)cc1C` (centres undefined), the RP-LC retention time was found to be 976 s.

With `O=C(CCC(=O)N1CCCC1c1nc2ccccc2s1)N1CCc2ccccc21` (centres undefined), the RP-LC retention time was 876 s. In turn, `CC(NC(=O)c1ccccc1)c1nc(-c2ccc3c(c2)nnn3C2CCCC2)no1` (centres undefined) yielded an RP-LC retention time of 964 s. As for `CCC(=O)N(C1CCOCC1)C1CCN(S(=O)(=O)c2ccccc2)CC1`, the figure is 764 s; as for `O=C(CCc1cccc2[nH]ccc12)NCc1ccc(N2CCCCC2)cc1`, 612 s; as for `CCCNC(=O)c1ccc2nc(CCc3ccc(NC(=O)C(C)C)cc3)[nH]c2c1`, 617 s.

`O=C1NCN(c2ccccc2)C12CCN(CC1COc3ccccc3O1)CC2` (centres undefined): the RP-LC retention time is 736 s.

`CCC(C(=O)NCCc1ccccc1)n1cnc2nc3c(cc2c1=O)CCCC3` (centres undefined) showed an RP-LC retention time of 785 s.

For `COc1ccc(-c2nnc(-c3cc(S(=O)(=O)N(C)C)ccc3Cl)o2)cc1`, the RP-LC retention time worked out at 970 s. Turning to `Cc1ccc(NCCCc2ccccc2)c(N)c1`, the RP-LC retention time was 728 s. As for `Nc1nc(=O)n(C2CS[C@H](CO)O2)cc1F` (some centres undefined), the RP-LC retention time is 571 s. As for `COc1ccc(-c2cc3n(n2)CCCN(C(=O)NCC2CCCO2)C3)cc1` (centres undefined), the figure is 681 s; as for `O=C(c1ccc(Br)cc1)N1CCC(n2c(-c3ccco3)nc3cccnc32)C1` (centres undefined), 827 s; as for `O=C(O)c1cn(-c2cccc(Br)c2)nn1`, 723 s. As for `O=C(NC1CCCCC1)C1CCN(S(=O)(=O)c2ccc(-c3noc(C4CC4)n3)cc2)CC1`, the figure is 928 s. Molecule `Cc1nc(-c2cn(C)c3ncccc23)sc1C(=O)Nc1ccc(Cl)cc1F` yielded an RP-LC retention time of 975 s. As for `Cc1cc(C)n(-c2ccc(C(=O)NCc3ccc(C(C)C)cc3)cn2)n1`, the figure is 1100 s; as for `COc1ccc2c(c1)C1(CCN(S(=O)(=O)c3cc(F)cc(F)c3)C1)C(=O)N2C` (centres undefined), 940 s; as for `Cc1ccc2nc(Nc3nc(C)cc(C(F)(F)F)n3)nc(C)c2c1`, 713 s. On to `Cc1cccc(C#Cc2ccccc2)n1`, for which the RP-LC retention time amounted to 833 s.

As to `CN1C(=O)c2cc(C(=O)NCCCc3ccccc3)nn2CC1(C)C(=O)NC1CCCCC1` (centres undefined), the RP-LC retention time is 854 s. For `COc1ccccc1NS(=O)(=O)c1ccc2c(c1)CCCC(=O)N2` the value was 716 s.
